Assay results reported in US20250170236A1, “A NOVEL CATIONIC ADJUVANT COMPOSITION” (STATENS SERUM INSTITUT, priority 2022, published 2025).

Test system: antigen-specific total IgG, IgG1 and IgG2c (H56 antigen)
Set-up: species or system CB6F1 mice
Conditions: mouse, in vivo

**Q.** CpG ODN 2006 [CpG2006] was tested. Which “increased antibody responses (effect seen with DDA/MMG/CpG2006)” value did it give?
**A.** not observed
